Reference: patent publication US20140084216A1 (Merck Patent GmbH, priority 2011, published 2014)

A melting point of 92 to 94 °C was found for C=CC(=O)OCCN(CCOC(=O)C=C)c1ccc(N=Nc2snc(C)c2C#N)c(NC(C)=O)c1 [Example 5, Acrylic acid 2-[{3-acetylamino-4-(4-cyano-3-methylisothiazol-5-ylazo)-phenyl}-{2-acryloyloxyethyl}-amino]-ethyl ester] in this work.
